Measurements: ChEMBL document CHEMBL4387765, “Rational design, molecular docking and synthesis of novel homopiperazine linked imidazo[1,2-a]pyrimidine derivatives as potent cytotoxic and antimicrobial agents” (Bioorg Med Chem Lett, 2019)
Converted amounts (≈) assume the structure as drawn.

Experiments:
Pseudomonas sp. = assay: Antibacterial activity against Pseudomonas sp. 2496 after 24 hrs by serial dilution method; assay type: functional
DU-145 [1] = assay: Cytotoxicity against human DU145 cells assessed as reduction in cell growth measured after 48 hrs by sulforhodamine B assay; assay type: functional, cell-based; settings: DU-145, 48 h
Bacillus subtilis = assay: Antibacterial activity against Bacillus subtilis MTCC 441 after 24 hrs by serial dilution method; assay type: functional; settings: MTCC 441, 24 h
A549 = assay: Cytotoxicity against human A549 cells assessed as reduction in cell growth measured after 48 hrs by sulforhodamine B assay; assay type: functional, cell-based; settings: A549, 48 h
HeLa [2] = assay: Cytotoxicity against human HeLa cells assessed as reduction in cell growth measured after 48 hrs by sulforhodamine B assay; assay type: functional, cell-based
Candida albicans = assay: Antifungal activity against Candida albicans MTCC 227 after 72 hrs by serial dilution method; assay type: functional; settings: MTCC 227, 72 h
Escherichia coli = assay: Antibacterial activity against Escherichia coli MTCC 443 after 24 hrs by serial dilution method; assay type: functional
Priestia megaterium = assay: Antibacterial activity against Bacillus megaterium MTCC 428 after 24 hrs by serial dilution method; assay type: functional; settings: MTCC 428, 24 h
SK-OV-3 = assay: Cytotoxicity against human SKOV3 cells assessed as reduction in cell growth measured after 48 hrs by sulforhodamine B assay; assay type: functional, cell-based; settings: SK-OV-3, 48 h
HeLa [3] = assay: Potency index, ratio of etoposide IC50 to test compound IC50 for human HeLa cells; assay type: functional
DU-145 [4] = assay: Potency index, ratio of etoposide IC50 to test compound IC50 for human DU145 cells; assay type: functional

| Compound | MIC (Pseudomonas sp.; Pseudomonas sp., 2496, 24 h) [µg/mL] | IC50 (DU-145 [1]) [µM] | MIC (Bacillus subtilis) [µg/mL] | IC50 (A549) [µM] | IC50 (HeLa [2]) [µM] | MIC (Candida albicans) [µg/mL] | MIC (Escherichia coli; MTCC 443, 24 h) [µg/mL] | MIC (Priestia megaterium) [µg/mL] | IC50 (SK-OV-3) [µM] | Ratio IC50 (HeLa [3]) | MIC (Pseudomonas sp.) [µg/mL] | MIC (Escherichia coli) [µg/mL] | Ratio IC50 (DU-145 [4]) |
| --- | --- | --- | --- | --- | --- | --- | --- | --- | --- | --- | --- | --- | --- |
| CN(C)C(=O)N1CCCN(c2ccn3cc(-c4ccc(F)cc4)nc3n2)CC1 | 1.8 (≈ 4.71 µM) | 10.6 | 18.6 (≈ 48.6 µM) | 5.98 | > 300 | 4.6 (≈ 12 µM) | 0.86 (≈ 2.25 µM) | 15.8 (≈ 41.3 µM) | 71.5 | – | – | – | – |
| O=S(=O)(c1ccc(F)cc1F)N1CCCN(c2ccn3cc(-c4ccc(F)cc4)nc3n2)CC1 | 5.2 (≈ 10.7 µM) | > 300 | 8.8 (≈ 18.1 µM) | > 300 | > 300 | > 100 | 4.6 (≈ 9.44 µM) | 10.4 (≈ 21.3 µM) | 10 | – | – | – | – |
| Cc1ccc(S(=O)(=O)N2CCCN(c3ccn4cc(-c5ccc(F)cc5)nc4n3)CC2)cc1[N+](=O)[O-] | 8.6 (≈ 16.8 µM) | 16.9 | 34.2 (≈ 67 µM) | > 300 | > 300 | 81.6 (≈ 160 µM) | 4.2 (≈ 8.23 µM) | 58.8 (≈ 115 µM) | > 300 | – | – | – | – |
| O=C(c1ccc(F)cc1)N1CCCN(c2ccn3cc(-c4ccc(F)cc4)nc3n2)CC1 | 38.2 (≈ 88.1 µM) | > 300 | 34.4 (≈ 79.4 µM) | 194 | 6.12 | 74.2 (≈ 171 µM) | 22.8 (≈ 52.6 µM) | 36.7 (≈ 84.7 µM) | 12.7 | 1.31 | – | – | – |
| O=C(Cc1cccs1)N1CCCN(c2ccn3cc(-c4ccc(F)cc4)nc3n2)CC1 | 3.1 (≈ 7.12 µM) | 65.5 | 44.2 (≈ 101 µM) | > 300 | > 300 | 5.6 (≈ 12.9 µM) | 3.1 (≈ 7.12 µM) | 38.6 (≈ 88.6 µM) | 18.8 | – | – | – | – |
| COC(=O)N1CCCN(c2ccn3cc(-c4ccc(F)cc4)nc3n2)CC1 | 18.6 (≈ 50.4 µM) | > 300 | 35.8 (≈ 96.9 µM) | 8.02 | 262 | 81.6 (≈ 221 µM) | 7.8 (≈ 21.1 µM) | 47.2 (≈ 128 µM) | 38.7 | – | – | – | – |
| CN(C)S(=O)(=O)N1CCCN(c2ccn3cc(-c4ccc(F)cc4)nc3n2)CC1 | 3.8 (≈ 9.08 µM) | > 300 | 9.6 (≈ 22.9 µM) | 29.9 | > 300 | 8.2 (≈ 19.6 µM) | 1.4 (≈ 3.35 µM) | 10.2 (≈ 24.4 µM) | > 300 | – | – | – | – |
| C[C@@H]1[C@H](O)[C@@H](C)/C=C/C=C/C=C/C=C/C=C/C=C/C=C/[C@H](O[C@@H]2O[C@H](C)[C@@H](O)[C@H](N)[C@@H]2O)C[C@@H]2O[C@](O)(C[C@@H](O)C[C@@H](O)[C@H](O)CC[C@@H](O)C[C@@H](O)CC(=O)O[C@H]1C)C[C@H](O)[C@H]2C(=O)O [AMPHOTERICIN B] | – | – | – | – | – | 8 (≈ 8.66 µM) | – | – | – | – | – | – | – |
| O=C(C1CCCCC1)N1CCCN(c2ccn3cc(-c4ccc(F)cc4)nc3n2)CC1 | 44.2 (≈ 105 µM) | 183 | > 100 | 104 | 170 | > 100 | > 100 | > 100 | 14.5 | – | – | – | – |
| COc1ccc(S(=O)(=O)N2CCCN(c3ccn4cc(-c5ccc(F)cc5)nc4n3)CC2)cc1 | 88.2 (≈ 183 µM) | > 300 | 12.8 (≈ 26.6 µM) | 205 | > 300 | 9.4 (≈ 19.5 µM) | > 100 | 14.6 (≈ 30.3 µM) | > 300 | – | – | – | – |
| CC(=O)N1CCCN(c2ccn3cc(-c4ccc(F)cc4)nc3n2)CC1 | 12.6 (≈ 35.7 µM) | > 300 | 84.2 (≈ 238 µM) | 103 | 220 | 9.8 (≈ 27.7 µM) | 0.92 (≈ 2.6 µM) | > 100 | 105 | – | – | – | – |
| CC1(C)S[C@@H]2[C@H](NC(=O)[C@H](N)c3ccccc3)C(=O)N2[C@H]1C(=O)O [AMPICILLIN] | – | – | 22 (≈ 63 µM) | – | – | – | – | 22 (≈ 63 µM) | – | – | – | – | – |
| GENTAMICIN | – | – | – | – | – | – | – | – | – | – | 6 | 3 | – |
| O=C(c1ccc(Cl)cc1)N1CCCN(c2ccn3cc(-c4ccc(F)cc4)nc3n2)CC1 | > 100 | 15.2 | 58.6 (≈ 130 µM) | 110 | 8.55 | > 100 | 88.2 (≈ 196 µM) | 58.6 (≈ 130 µM) | > 300 | – | – | – | – |
| N#Cc1ccc(S(=O)(=O)N2CCCN(c3ccn4cc(-c5ccc(F)cc5)nc4n3)CC2)cc1 | 34.2 (≈ 71.8 µM) | > 300 | 24.8 (≈ 52 µM) | > 300 | > 300 | 68.1 (≈ 143 µM) | 58.6 (≈ 123 µM) | 21.7 (≈ 45.5 µM) | 22.3 | – | – | – | – |
| CS(=O)(=O)N1CCCN(c2ccn3cc(-c4ccc(F)cc4)nc3n2)CC1 | 34.6 (≈ 88.8 µM) | > 300 | 28.7 (≈ 73.7 µM) | 8.41 | > 300 | 38.7 (≈ 99.4 µM) | 18.4 (≈ 47.2 µM) | 26.4 (≈ 67.8 µM) | > 300 | – | – | – | – |
| O=C(C1CC1)N1CCCN(c2ccn3cc(-c4ccc(F)cc4)nc3n2)CC1 | > 100 | > 300 | 88.6 (≈ 234 µM) | 144 | > 300 | > 100 | 94.7 (≈ 250 µM) | 92.4 (≈ 244 µM) | 18.8 | – | – | – | – |
| COc1cccc(S(=O)(=O)N2CCCN(c3ccn4cc(-c5ccc(F)cc5)nc4n3)CC2)c1 | 22.1 (≈ 45.9 µM) | 6.24 | 84.8 (≈ 176 µM) | 4.14 | 6.54 | > 100 | 33.8 (≈ 70.2 µM) | 84.4 (≈ 175 µM) | 229 | 1.13 | – | – | 1.57 |
| O=C(Cc1ccccc1)N1CCCN(c2ccn3cc(-c4ccc(F)cc4)nc3n2)CC1 | 10.2 (≈ 23.7 µM) | > 300 | 38.6 (≈ 89.9 µM) | 262 | > 300 | > 100 | 8.4 (≈ 19.6 µM) | 34.2 (≈ 79.6 µM) | 17.4 | – | – | – | – |
| COc1cc([C@@H]2c3cc4c(cc3[C@@H](O[C@@H]3O[C@@H]5CO[C@@H](C)O[C@H]5[C@H](O)[C@H]3O)[C@H]3COC(=O)[C@H]23)OCO4)cc(OC)c1O [ETOPOSIDE] | – | 9.8 | – | 10.4 | 7.43 | – | – | – | 2.39 | – | – | – | – |
| O=S(=O)(C1CC1)N1CCCN(c2ccn3cc(-c4ccc(F)cc4)nc3n2)CC1 | 28.2 (≈ 67.9 µM) | 40.4 | 48.4 (≈ 116 µM) | > 300 | 33.5 | 14.6 (≈ 35.1 µM) | 34.6 (≈ 83.3 µM) | 64.6 (≈ 155 µM) | > 300 | – | – | – | – |
